Consider one molecule from patent US10220025B1, “Self-emulsifying formulation of CARP-1 functional mimetics” (Florida A&M University, priority 2016, dated 2019).

Data set [1] has as its system Adriamycin-resistant (ADR-R) MDA-MB-468 sublines. The experiment in a line: MTT viability assay, ADR-resistant MDA-MB-468 sublines. Format: cell-based, human. To be noted: ADR-resistant MDA-MB-468 subline 1; FIG. 5E. On the procedure: Human TNBC MDA-MB-468 and MDA-MB-231, and mouse TNBC 4T1 cells were cultured in the chronic presence (>10 months) of Doxorubicin. The parental, wild-type cells were initially treated with 200 nM Doxorubicin for 2-3 weeks, followed by escalation to 400 nM, 1 μM, and 2 μM doses over a period of 3-4 weeks for each dose till resistance developed and the cells became well adapted to growth in […] of Doxorubicin for their routine culture. In the case of Cisplatin however, the human TNBC MDA-MB-468 and MDA-MB-231 were initially cultured in continuous presence of 1 μM Cisplatin for 3-4 weeks, and the dose was escalated to 1.5 μM and 3 μM over periods of 3-4 weeks for each dose till resistance developed and cells became adapted to routine culture in 3 μM dose. Subsequent, routine maintenance of the resistant cells in the presence of the respective drug was continued and multiple, resistant sublines for each of the TNBC cells were isolated and characterized for their growth inhibitory (GI)50 dose of respective therapeutic by the MTT-based viability assays as below.

In data set [2] the test system is HeLa cervical cancer cells. The experiment in a line: MTT viability assay, HeLa. It is filed as cell-based. The conditions noted are these: 20 μM; 24 h; FIG. 3A. An excerpt:
The current inventors' previous studies have indicated cancer cell growth inhibitory properties of CFMs in particular CFM-4 and CFM-5 [Puliyappadamba et al.]. […] J. Biomed. Nanotechnol. 2015; 11:1608-1627]. […] J. Biomed. Nanotechnol. 2015; 11:1608-1627]. On the basis of these findings, it was speculated that solubility and/or potency of the CFM-4 scaffold could be improved for its utility as a novel anti-TNBC molecule. To address this possibility, twelve (12) additional analogs of CFM-4 (Table 2) were synthesized using medicinal chemistry based structure activity relationship (SAR) studies. Each of the analog was suspended in DMSO, and their potency was evaluated in cell culture studies utilizing HeLa cervical cancer, MDA-MB-468 TNBC, and H2461 malignant pleural mesothelioma (MPM) cells by MTT based assays. […] Moreover, a 10 μM dose of CFM-4 inhibited MDA-MB-231 and MDA-MB-468 viabilities by ˜30% and 45%, respectively.

The test system of data set [3] is TNBC cells. Kind of data set: MTT viability assay, parental TNBC cells (lines not singled out). Format: cell-based. In general terms: Formazan colour is commonly taken as a measure of viable cells.
Experimental: In vitro inhibition of cell growth was assessed by MTT (3-[4, 5-dimethyltiazol-2-yl]-2.5-diphenyl tetrazolium bromide) reagent. Cells (5×10^3) were seeded in a 96-well culture plate and subsequently treated with respective agents at different concentrations as mentioned. Control cells were treated with 0.1% DMSO in culture medium. After treatment, the cells were incubated with 1 mg/ml of MTT reagent at 37° C. for 2-4 hours and then MTT was removed and 50 μL of DMSO was added, followed by colorimetric analysis using a multi-label plate reader at 560 nm (Victor3; PerkinElmer, Wellesley, Mass., USA).
In data set [4] the test system is MCF-7, SK-BR-3 and MDA-MB-453 breast cancer cells. The experiment in a line: MTT viability assay, ADR plus CFM-4.16 in non-TNBC breast cancer cells. It is filed as cell-based. To be noted: not shown.
In data set [5] the test system is parental and drug-resistant human TNBC cells. The protocol: Control cells were treated with 0.1% DMSO in culture medium.
The subject of data set [6] is CARP-1, cyclin B1, cleaved PARP, caspase-8, p38, MKK4, JNK1/2 in TNBC cells. Kind of data set: Western blot, apoptosis and SAPK signaling. Format: cell-based. For orientation: A western blot detects proteins with antibodies after separation by electrophoresis.
Experimental: (§1) For protein expression analysis, Western blot (WB) experiments were performed according to the standard procedures. The cells were either untreated or treated with various agents either alone or in combinations as indicated. Following treatment durations, the cells were lysed in cell lysis (10×) buffer (#9803; cell signaling) containing 0.1% of protease and phosphatase inhibitor cocktail (Sigma) for 20 min at 4° C. The lysates were centrifuged at 14,000 rpm at 4° C. for 15-20 min to remove debris. Protein concentrations of whole cell lysates were determined using the Protein Assay Kit. Supernatant proteins, 50-100 μg from each sample, were separated by SDS-polyacrylamide gel electrophoresis (SDS-PAGE) and transferred to polyvinylidene difluoride (PVDF) membrane (Bio-rad, Hercules, Calif.) by standard procedures. […] The antibody-bound proteins were visualized by treatment with the chemiluminescence detection reagent according to manufacturer's instructions, followed by exposure to X-ray film (Denville Scientific Inc.). The same membranes were re-probed with the anti-β-actin or anti-α-tubulin antibody, which was used as an internal control for protein loading.
For data set [7], the system named is HUVECs. The experiment in a line: in vitro tubule formation (angiogenesis) assay. It is filed as cell-based, human. To be noted: 12 hours; FIG. 11A. On the procedure:
The growth of tubules was monitored over a period of 12 hours. The cells growth in the scratch assay was recorded by photography. Representative photomicrographs of control and treated cells are presented.
It was next investigated whether CFM-4.16 inhibited TNBC cell migration and growth as colonies in soft agar and 3-dimensional cultures in vitro. In addition, an in vitro tubule formation assay was conducted to determine anti-angiogenic properties of CFM-4.16. […] Moreover, treatments with CFM-4 or CFM-4.16 prevented the parental as well as drug (ADR- or cisplatin-) resistant TNBC sublines and the parental and Herceptin-resistant, Her-2-positive SKBR-3 cells from growing in the areas of wound caused by a scratch (FIGS. 11B, 11C, 12A, 12B, 13A, and 13B).

For data set [8], the system named is parental and drug-resistant TNBC and SKBR-3 cells. The experiment in a line: soft-agar clonogenic assay. It is filed as cell-based. The conditions noted are these: 10 μM; FIGS. 11D, 12C, 12D, 13C. The protocol: A soft-agar sandwich assay was performed. Cells were sandwiched between 0.6% and 0.3% agarose in DMEM medium containing 5% FBS in a six-well chamber (500 cells/chamber), and treated with buffer (Control), or respective agent for noted time and dose at 37° C. humidified CO2 incubator. The colonies from multiple random fields were counted, compared to control and photographed essentially as described before [Jamal S, Cheryan V T, Muthu M, Munie S, Levi E, Ashour A E, Pass H I, Wali A, Singh M, Rishi A K. CARP-1 functional mimetics are a novel class of small molecule inhibitors of malignant pleural mesothelioma cells. PLos One. 2014; 9:e891; Ashour A E, Jamal S, Cheryan V T, Muthu M, Zoheir K M A, Alafeefy A M, Abd-allah A R, Levi E, Tarca A L, Polin L A, Rishi A K. CARP-1 functional mimetics: A novel class of small molecule inhibitors of medulloblastoma cell growth. PLoS One. 2013; 8:e66733; Zhang L, Levi E, Majumder P, Yu Y, Aboukameel A, Du J, Xu H, Mohammad R M, Hatfield J S, Wali A, Adsay V, Majumdar A P N, Rishi A K. Transactivator of transcription tagged cell cycle and apoptosis regulatory protein-1 peptides suppress growth of human breast cancer cells in vitro and in vivo. Mol Cancer Ther. 2007; 6:1661-1672].

Data set [9] can be described thus: maximal tolerated dose determination. Format: in vivo. An excerpt: J. Biomed. Nanotechnol. 2015; 11:1608-1627]. […] Results was expressed as percentage.
In data set [10] the test system is MDA-MB-231 TNBC cells. To be noted: 470 mg/kg, Qd 1-19, iv, DMSO plus cremophor; not shown.
For data set [11], the system named is Klf4, Oct4, SOX2, CD133 in MDA-MB-231 TNBC cells. Kind of data set: Western blot, cancer stem cell markers. The conditions noted are these: parental and ADR-resistant MDA-MB-231; FIG. 14B.
Experimental: as §1

Structures are written as SMILES.

By CC50 is commonly meant the concentration that lowers cell viability or growth by half. What is called GI50 is the concentration giving 50% growth inhibition. With `O=C1N(Cc2ccccc2Cl)c2ccccc2C12NN=C(c1cccc(Cl)c1)S2` (stereo not shown) [CFM-4.16], the “effect of siRNA-mediated depletion of CARP-1 on growth inhibition by the compound” value in data set [1] was “interfered with growth inhibition”. The “inhibition of viability compared with CFM-4” value in data set [2] was “greater inhibition of viability”. Besides, the CC50 in [3] fell in the range of 7 to 8 µM. Further, the “effect on ADR-mediated inhibition of viability” value in data set [3] (5 μM each, combination, 6 h, FIG. 3C) is on record as “enhanced ADR-mediated inhibition of viability”. Moreover, in data set [3] (5 μM, 6 h, FIG. 3C), the “loss of cell viability compared with ADR-treated cell line” value is listed as “greater loss of cell viability”. The “growth of wild-type TNBC cells” value in data set [3] (12 h, FIGS. 4A-4E) is listed as “inhibited growth”. The “activity relative to parent compound CFM-4 or other analogs” value in data set [3] (SAR screen of twelve analogs) is listed as “superior”. Moreover, the GI50 in data set [3] (read-out: dose for inhibition of TNBC cells growth by 50% (GI50)) was ~2 µM. For the same molecule, the “effect on ADR-mediated growth inhibition” value in data set [4] was “failed to enhance ADR-mediated growth inhibition”. In addition, the “loss of viability, CFM-4.16 alone” value in data set [5] is listed as 45-55%. Also, the “apoptosis and SAPK markers in parental and drug-resistant TNBC cells” value in data set [6] (FIGS. 5A-5C, 6A-6D) was “activated pro-apoptotic SAPKs p38α/β and JNK1/2, caspase-8, while causing cleavage of PARP and decline in mitotic cyclin B1 levels”. Also, the “activation of pro-apoptotic SAPKs in comparison with CFM-4” value in data set [6] (parental and resistant TNBC cells, FIG. 5C) is “rather robust activation of both the pro-apoptotic SAPKs”. Moreover, the “tubule formation by HUVECs compared with untreated control” value in data set [7] is on record as “rather robust disruption in tubule integrity”. Also, the “colonies formed in soft agar” value in data set [8] was “significant reduction in size and number of colonies”. In [9] (daily iv 24-32 mg/kg days 1-16, total dose 482 mg/kg, by day 7 (recovery by day 18)), this molecule had a weight loss of 1.6 % body weight. In data set [9] (daily iv, total dose 482 mg/kg), the clinical signs entry was “mild ataxia with some tail and leg twitching resolving within 1-2 minutes”; the histology result is listed as “No other histological abnormalities”. In data set [10], the “tumor growth inhibition (T/C)” value is “failed to yield a therapeutic T/C values”. In addition, the “levels of Oct4” value in data set [11] was “robust decline in levels of Oct4”.
